Assays:
Human CB1 receptor [1] = molecular target: T1, Human CB1 receptor (Homo sapiens, UniProt P21554); experiment: hCB1 receptor binding (3H-CP55,940 displacement); conditions: hCB1 membranes, Ki=IC50/(1+[rad]/Kd)
T1 construct: purchased Receptor Biology
Protocol: The total and non-specific binding are determined in the absence and presence of 0.2 μM of HU210 respectively. The plates are vortexed and incubated for 60 minutes at room temperature, filtered through Unifilters GF/B (presoaked in 0.1% polyethyleneimine) with the Tomtec or Packard harvester using 3 mL of wash buffer (50 mM Tris, 5 mM MgCl2, 0.5 mg BSA pH 7.0). The filters are dried for 1 hour at 55° C. The radioactivity (cpm) is counted in a TopCount (Packard) after adding 65 μl/well of MS-20 scintillation liquid.
Based on the above assays, the dissociation constant (Ki) for a particular compound of the invention towards a particular receptor is determined using the following equation:
[rad] is a standard or reference radioactive ligand concentration at that moment; and
Kd is the dissociation constant of the radioactive ligand towards the particular receptor.

Human CB1 receptor [2] = molecular target: T1, Human CB1 receptor; experiment: hCB1 GTPγS binding; format: biochemical; conditions: hCB1 membranes, GTPg35S binding; for Emax: maximal stimulation with 10 μM Win 55,212-2
Protocol: Human CB1 receptor from Receptor Biology (hCB1) or human CB2 receptor membranes (BioSignal) are thawed at 37° C., passed 3 times through a 25-gauge blunt-end needle and diluted in the GTPγS binding buffer (50 mM Hepes, 20 mM NaOH, 100 mM NaCl, 1 mM EDTA, 5 mM MgCl2, pH 7.4, 0.1% BSA). […] The basal and maximal stimulated binding is determined in absence and presence of 1 μM (hCB2) or 10 μM (hCB1) Win 55,212-2 respectively. The membranes are pre-incubated for 5 minutes with 56.25 μM (hCB2) or 112.5 μM (hCB1) GDP prior to distribution in plates (15 μM (hCB2) or 30 μM (hCB1) GDP final). The plates are vortexed and incubated for 60 minutes at room temperature, filtered on Unifilters GF/B (presoaked in water) with the Tomtec or Packard harvester using 3 ml of wash buffer (50 mM Tris, 5 mM MgCl2, 50 mM NaCl, pH 7.0). The filters are dried for 1 hour at 55° C. The radioactivity (cpm) is counted in a TopCount (Packard) after adding 65 μl/well of MS-20 scintillation liquid. Antagonist reversal studies are done in the same way except that (a) an agonist dose-response curve is done in the presence of a constant concentration of antagonist, or (b) an antagonist dose-response curve is done in the presence of a constant concentration of agonist.

T1 sequence (P21554 whole entry): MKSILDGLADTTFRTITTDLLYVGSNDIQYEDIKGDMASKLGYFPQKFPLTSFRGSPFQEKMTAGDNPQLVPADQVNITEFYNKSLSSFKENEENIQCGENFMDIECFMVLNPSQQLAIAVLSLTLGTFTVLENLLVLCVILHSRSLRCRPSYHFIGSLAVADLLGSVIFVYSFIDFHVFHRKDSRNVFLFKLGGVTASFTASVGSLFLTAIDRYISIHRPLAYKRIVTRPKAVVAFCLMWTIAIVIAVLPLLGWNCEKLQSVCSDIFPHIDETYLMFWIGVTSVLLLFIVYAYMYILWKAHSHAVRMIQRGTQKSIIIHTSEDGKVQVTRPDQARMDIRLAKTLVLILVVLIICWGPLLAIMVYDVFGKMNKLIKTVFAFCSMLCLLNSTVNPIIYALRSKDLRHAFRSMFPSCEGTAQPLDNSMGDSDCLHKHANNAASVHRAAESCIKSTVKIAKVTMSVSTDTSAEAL

SMILES	Ki (Human CB1 receptor [1]) [nM]	EC50 (Human CB1 receptor [2]) [nM]	Emax (Human CB1 receptor [2]) [%]
O=C(NCC1CCC1)c1cc(Cl)ccc1NC(=O)c1cccc2ccccc12 [Example 17, N-[4-Chloro-2-[[(cyclobutylmethyl)amino]carbonyl]phenyl]-1-naphthalenecarboxamide]	7.3	41	95
O=C(NCC1CCCCC1)c1c(O)cccc1NC(=O)c1cccc2ccccc12 [Example 49, N-[2-[[(Cyclohexylmethyl)amino]carbonyl]-3-hydroxyphenyl]-1-naphthalenecarboxamide]			109
O=C(NC1CCOCC1)c1cc(Cl)ccc1NC(=O)c1cccc2ccccc12 [Example 30, N-[4-Chloro-2-[[(tetrahydro-2H-pyran-4-yl)amino]carbonyl]phenyl]-1-naphthalenecarboxamide]	71	304	109

Reference: US20090018116A1, “Therapeutic Compounds” (ASTRAZENECA AB, priority 2004, published 2009)
